The record followed here is patent US10160747B2, “Compounds and methods for kinase modulation, and indications therefor” (Plexxikon Inc., priority 2016, dated 2018).

One assay deals with T1, FLT3-D835Y (Homo sapiens, UniProt P36888, D835Y).
T1 construct: purchased Invitrogen PV3967
T1 sequence (P36888 27-993 D835Y): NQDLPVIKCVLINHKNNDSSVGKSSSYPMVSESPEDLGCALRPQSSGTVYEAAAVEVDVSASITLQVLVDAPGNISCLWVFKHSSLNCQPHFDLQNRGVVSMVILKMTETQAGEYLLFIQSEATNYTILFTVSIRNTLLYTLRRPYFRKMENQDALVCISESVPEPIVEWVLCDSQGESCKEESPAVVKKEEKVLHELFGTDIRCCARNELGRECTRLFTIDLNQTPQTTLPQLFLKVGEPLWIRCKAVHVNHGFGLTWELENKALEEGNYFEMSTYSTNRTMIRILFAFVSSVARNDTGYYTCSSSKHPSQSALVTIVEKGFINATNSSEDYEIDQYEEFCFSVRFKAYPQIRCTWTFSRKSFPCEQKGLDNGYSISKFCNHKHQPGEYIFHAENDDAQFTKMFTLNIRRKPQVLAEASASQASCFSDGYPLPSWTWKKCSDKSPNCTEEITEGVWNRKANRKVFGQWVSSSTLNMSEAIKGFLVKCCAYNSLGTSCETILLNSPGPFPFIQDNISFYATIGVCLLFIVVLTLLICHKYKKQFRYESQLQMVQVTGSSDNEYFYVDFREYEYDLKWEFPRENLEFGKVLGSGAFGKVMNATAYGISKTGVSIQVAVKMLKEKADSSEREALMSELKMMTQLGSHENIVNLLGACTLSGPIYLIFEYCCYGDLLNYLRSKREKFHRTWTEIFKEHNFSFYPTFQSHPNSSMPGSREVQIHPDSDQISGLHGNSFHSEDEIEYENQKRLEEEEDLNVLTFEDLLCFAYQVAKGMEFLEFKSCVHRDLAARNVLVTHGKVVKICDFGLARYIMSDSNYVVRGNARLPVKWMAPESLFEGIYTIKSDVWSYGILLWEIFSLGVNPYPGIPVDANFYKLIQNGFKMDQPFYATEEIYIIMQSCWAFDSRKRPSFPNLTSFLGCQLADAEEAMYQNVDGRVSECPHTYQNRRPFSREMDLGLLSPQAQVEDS
Description: FLT3-D835Y recombinant enzyme kinase assay (AlphaScreen). The assay is classed as biochemical. As to conditions: 8 pt, GMean. On the procedure: (§1) In order to determine the effect of compounds on FLT3 catalytic activity, kinase assays using recombinant enzymes and AlphaScreen® technology have been established. The catalytic activity of c-kit activity was also measured to determine selectivity of the compounds. When the kinases are catalytically active, they phosphorylate a biotinylated peptide substrate on tyrosine residues. Using AlphaScreen® technology, the ability of the compounds to affect the catalytic activity of the kinases can be measured quantitatively. The peptide substrate is immobilized by the AlphaScreen® Streptavidin Donor beads and, upon phosphorylation by a tyrosine kinase, can bind to AlphaScreen® Anti-Phosphotyrosine (PY20) Acceptor beads. Upon excitation of these beads with laser light at 680 nm, singlet oxygen is produced. This singlet oxygen is rapidly quenched, unless the AlphaScreen® Anti-Phosphotyrosine (PY20) Acceptor beads are in close proximity, in which case a proximity signal can be measured at 580 nm. In the presence of catalytic activity, there is a very strong proximity signal. Selective kinase inhibitors affect a decrease in this proximity signal through a decrease in tyrosine phosphorylation of the peptide substrate.
(§2) The assay was performed as summarized below.
(§3) Poly (Glu4-Tyr) Peptide, biotin conjugate [Biotin-GG(EEEEY)10EE] (SEQ ID NO: 4)
(§4) Final concentration=30 nM
(§5) Adenosine Triphosphate (ATP)
(§6) Final concentration for IC50 determination=10 μM (FLT3-D835Y or FLT3-ITD) or 100 μM (c-KIT)
(§7) AlphaScreen® Phosphotyrosine (PY20) Assay Kit
(§8) Final concentration=10 μg/mL
(§9) Dilute compounds in DMSO to 20× final concentration.
(§10) Add 1 μL of compound to each well of 384 well reaction plate (Perkin Elmer #6005359).
(§11) Mix enzyme and Poly (Glu4-Tyr) Peptide substrate at 1.33× final concentration in assay buffer.
(§12) Mix ATP at 5× final concentration in assay buffer.
(§13) Add 15 μL enzyme/substrate mixture to the reaction plate.
(§14) Add 4 μL of ATP to the reaction plate.
(§15) Mix Streptavidin Donor beads at 6× final concentration in Stop/Detection buffer.
(§16) Add 5 μL Streptavidin Donor beads to the reaction plate. Centrifuge 1 minute, shake to mix, and incubate at room temperature for 20 minutes.
(§17) Mix Anti-Phosphotyrosine (PY20) Acceptor beads at 6× final concentration in Stop/Detection buffer.
(§18) Add 5 μL Anti-Phosphotyrosine (PY20) beads to the reaction plate.
(§19) Centrifuge 1 minute, shake to mix, and incubate at room temperature for 60 minutes.
(§20) Read plate on Wallac EnVision™ 2103 Multilabel Reader.
On the technique in general: In Alpha technology, singlet oxygen from a donor bead excites a nearby acceptor bead.

In the next assay the target is T2, FLT3-ITD (Homo sapiens, UniProt P36888).
T2 sequence (P36888 1-993): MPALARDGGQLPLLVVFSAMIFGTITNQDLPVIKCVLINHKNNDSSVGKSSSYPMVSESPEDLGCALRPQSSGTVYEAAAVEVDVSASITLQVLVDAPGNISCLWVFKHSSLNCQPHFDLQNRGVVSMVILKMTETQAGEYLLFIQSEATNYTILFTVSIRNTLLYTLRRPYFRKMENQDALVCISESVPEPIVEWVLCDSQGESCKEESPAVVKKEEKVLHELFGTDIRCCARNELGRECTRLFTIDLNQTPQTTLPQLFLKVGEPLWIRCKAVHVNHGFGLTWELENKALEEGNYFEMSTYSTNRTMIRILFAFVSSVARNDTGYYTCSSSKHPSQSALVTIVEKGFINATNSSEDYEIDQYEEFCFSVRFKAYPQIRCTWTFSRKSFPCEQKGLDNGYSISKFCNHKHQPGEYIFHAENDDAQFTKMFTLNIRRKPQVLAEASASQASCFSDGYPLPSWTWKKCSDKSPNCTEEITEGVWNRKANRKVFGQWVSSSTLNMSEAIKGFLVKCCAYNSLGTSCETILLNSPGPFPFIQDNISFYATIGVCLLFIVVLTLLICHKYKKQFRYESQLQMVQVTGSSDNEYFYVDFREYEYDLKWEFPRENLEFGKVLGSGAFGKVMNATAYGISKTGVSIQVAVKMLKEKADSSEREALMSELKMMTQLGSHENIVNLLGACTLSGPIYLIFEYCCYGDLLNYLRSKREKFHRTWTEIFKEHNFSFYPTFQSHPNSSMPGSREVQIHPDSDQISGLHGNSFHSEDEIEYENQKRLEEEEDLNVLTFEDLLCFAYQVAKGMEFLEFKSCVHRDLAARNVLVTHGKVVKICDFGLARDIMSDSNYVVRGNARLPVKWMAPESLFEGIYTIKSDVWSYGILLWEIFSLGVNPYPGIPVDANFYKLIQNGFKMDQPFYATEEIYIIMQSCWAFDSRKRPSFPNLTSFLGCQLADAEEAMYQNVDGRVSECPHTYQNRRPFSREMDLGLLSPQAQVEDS
Description: FLT3-ITD recombinant enzyme kinase assay (AlphaScreen). The conditions noted are these: 8 pt; read-out: FLT3_ITD 8 pt: IC50. The assay is classed as biochemical. The protocol:
as §1, §2, §3, §4, §5, §6, §7, §8, §9, §10, §11, §12, §13, §14, §15, §16, §17, §18, §19, §20

The next assay addresses T3, c-KIT (Homo sapiens, UniProt P10721).
T3 construct: purchased Millipore 14-559K
Description: c-KIT recombinant enzyme kinase assay (AlphaScreen). The assay is classed as biochemical. The conditions noted are these: 100 ATP, 8 pt. The protocol: as §1, §2, §3, §4, §5, §6, §7, §8, §9, §10, §11, §12, §13, §14, §15, §16, §17, §18, §19, §20

The subject of assay [1] is MOLM-14 D835Y (endogenous FLT3 ITD and transfected FLT3 D835Y). Description: MOLM-14 D835Y cell proliferation assay (CellTiter-Glo). As to conditions: Homo sapiens, MOLM-14, 72 h; 3 d growth, GMean. It is filed as cell-based. A digest of the protocol: (§21)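 MOLM-14 derivatives carrying D835Y or F691L, selected under escalating AC220, were seeded at 1×10^4 cells/well and exposed to an 8-point 1:3 compound series (1 to 0.00046 μM, 0.2% DMSO final) for three days at 37° C., 5% CO2. CellTiter-Glo luminescence (ATP content) versus concentration gave IC50.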
In general terms: In ATP-based viability assays light output follows the ATP content of the culture.

In assay [2] the test system is MOLM-14 F691L (endogenous FLT3 ITD and transfected FLT3 F691L). Description: MOLM-14 F691L cell proliferation assay (CellTiter-Glo). As to conditions: Homo sapiens, MOLM-14, 72 h; 3 d growth, GMean. It is filed as cell-based. The method in brief:
as §21

The target of the next assay is T4, BA/F3-FLT3-ITD + D835Y (Homo sapiens, UniProt P36888, D835Y, cells depend on it, form not given).
T4 sequence (P36888 with tags, fused parts or gaps INS600HVDFREYEYD/D835Y): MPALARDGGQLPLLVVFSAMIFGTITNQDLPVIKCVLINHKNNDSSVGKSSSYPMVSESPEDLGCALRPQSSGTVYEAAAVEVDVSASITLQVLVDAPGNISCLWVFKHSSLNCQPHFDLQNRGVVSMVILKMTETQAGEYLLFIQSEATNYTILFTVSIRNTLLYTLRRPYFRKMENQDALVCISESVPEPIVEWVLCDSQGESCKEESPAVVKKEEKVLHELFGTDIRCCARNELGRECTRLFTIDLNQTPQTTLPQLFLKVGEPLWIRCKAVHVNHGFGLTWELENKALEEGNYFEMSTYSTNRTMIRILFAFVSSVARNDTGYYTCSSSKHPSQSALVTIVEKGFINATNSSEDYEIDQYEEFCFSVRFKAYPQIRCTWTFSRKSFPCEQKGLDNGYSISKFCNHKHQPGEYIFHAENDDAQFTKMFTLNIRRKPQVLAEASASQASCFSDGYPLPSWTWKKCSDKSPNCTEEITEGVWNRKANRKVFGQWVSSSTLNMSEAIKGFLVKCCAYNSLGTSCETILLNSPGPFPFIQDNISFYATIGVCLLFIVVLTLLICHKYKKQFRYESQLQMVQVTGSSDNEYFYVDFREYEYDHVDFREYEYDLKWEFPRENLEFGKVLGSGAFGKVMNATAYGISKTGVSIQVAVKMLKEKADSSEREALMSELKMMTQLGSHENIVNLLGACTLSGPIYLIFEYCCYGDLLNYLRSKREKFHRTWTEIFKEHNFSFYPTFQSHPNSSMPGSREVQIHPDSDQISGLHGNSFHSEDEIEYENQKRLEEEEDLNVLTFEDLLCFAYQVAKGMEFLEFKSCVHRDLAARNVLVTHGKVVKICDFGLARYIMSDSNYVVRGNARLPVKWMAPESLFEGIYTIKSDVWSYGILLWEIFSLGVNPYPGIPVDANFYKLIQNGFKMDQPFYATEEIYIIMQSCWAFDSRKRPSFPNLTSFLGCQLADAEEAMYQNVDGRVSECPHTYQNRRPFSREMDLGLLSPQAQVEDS
Description: Engineered BA/F3 cell growth assay, FLT3 ITD/D835Y. The assay is classed as cell-based, murine. As to conditions: 3 d growth. A digest of the protocol:
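Murine Ba/F3 cells transfected with full-length FLT3 ITD/D835Y, grown without IL-3 so growth depends on FLT3. Seeded at 1×10^4 cells/well, 8-point 1:3 series to 1 μM top (0.2% DMSO), 3 days at 37 °C. CellTiter-Glo luminescence (ATP) versus concentration gave IC50.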

T3 sequence (P10721 26-976): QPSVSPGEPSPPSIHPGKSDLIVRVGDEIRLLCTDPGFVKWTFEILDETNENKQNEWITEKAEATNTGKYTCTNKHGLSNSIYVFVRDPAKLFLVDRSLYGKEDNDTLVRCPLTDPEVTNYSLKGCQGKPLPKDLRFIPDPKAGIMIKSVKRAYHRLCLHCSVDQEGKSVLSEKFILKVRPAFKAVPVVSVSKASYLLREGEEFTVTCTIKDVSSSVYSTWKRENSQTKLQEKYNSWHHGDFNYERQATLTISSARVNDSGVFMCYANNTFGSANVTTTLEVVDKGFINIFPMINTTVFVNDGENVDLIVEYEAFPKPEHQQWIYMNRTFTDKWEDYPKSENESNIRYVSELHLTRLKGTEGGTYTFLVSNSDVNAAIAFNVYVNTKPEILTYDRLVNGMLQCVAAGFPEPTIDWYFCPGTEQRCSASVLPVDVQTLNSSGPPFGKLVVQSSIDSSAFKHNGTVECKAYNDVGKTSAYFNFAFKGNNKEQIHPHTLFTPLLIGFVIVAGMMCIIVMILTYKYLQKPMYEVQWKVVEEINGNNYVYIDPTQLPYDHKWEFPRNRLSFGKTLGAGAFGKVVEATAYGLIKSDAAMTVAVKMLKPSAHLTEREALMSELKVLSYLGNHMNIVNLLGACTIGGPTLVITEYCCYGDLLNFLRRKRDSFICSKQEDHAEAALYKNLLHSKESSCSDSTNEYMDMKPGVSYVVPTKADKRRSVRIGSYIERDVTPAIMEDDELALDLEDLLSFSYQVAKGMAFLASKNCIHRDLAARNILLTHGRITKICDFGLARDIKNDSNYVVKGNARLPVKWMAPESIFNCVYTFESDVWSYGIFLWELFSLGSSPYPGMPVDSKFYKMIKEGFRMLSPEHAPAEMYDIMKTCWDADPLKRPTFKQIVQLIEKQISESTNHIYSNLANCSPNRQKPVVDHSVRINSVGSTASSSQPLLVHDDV

On to `COc1ncc(NC(=O)Cc2ccc(-c3cnc(Nc4cn[nH]c4)nc3)c(F)c2)cc1C(F)(F)F` [Compound P-0028, 2-[3-fluoro-4-[2-(1H-pyrazol-4-ylamino)pyrimidin-5-yl]phenyl]-N-[6-methoxy-5-(trifluoromethyl)-3-pyridyl]acetamide], for which the IC50 at FLT3-D835Y, on FLT3-ITD and at c-KIT was 0.0001 to 10 µM throughout.
On to `CCC(=O)c1c[nH]c2ncc(-c3ccc(CC(=O)Nc4cnc(OC)c(C(F)(F)F)c4)c(F)c3)cc12` [Compound P-0049, 2-[2-fluoro-4-(3-propanoyl-1H-pyrrolo[2,3-b]pyridin-5-yl)phenyl]-N-[6-methoxy-5-(trifluoromethyl)-3-pyridyl]acetamide], for which the IC50 (in assay [1]; on c-KIT; in assay [2]) was 0.0001 to 10 µM in each case. The GI50 at BA/F3-FLT3-ITD + D835Y lay in the range of 0.0001 to 10 µM.
On to `O=C(Cc1ccc(-c2cnc3[nH]c(C4CC4)cc3c2)cc1F)Nc1cncc(C(F)(F)F)c1` [Compound P-0080, 2-(4-(2-cyclopropyl-1H-pyrrolo[2,3-b]pyridin-5-yl)-2-fluorophenyl)-N-(5-(trifluoromethyl)pyridin-3-yl)acetamide], for which the IC50 at FLT3-D835Y, on FLT3-ITD and on c-KIT was 0.0001 to 10 µM throughout.
With `Cn1cc(Nc2ncc(-c3ccc(CC(=O)Nc4cc(F)c(F)cn4)cc3)cn2)cn1` [Compound P-0163, N-(4,5-difluoro-2-pyridyl)-2-[4-[2-[(1-methylpyrazol-4-yl)amino]pyrimidin-5-yl]phenyl]acetamide], the IC50 on FLT3-ITD and on c-KIT was 0.0001 to 10 µM each time.
For `COc1ncc(NC(=O)Cc2ccc(-c3cnc4[nH]nc(F)c4c3)cc2)cc1C(F)(F)F` [Compound P-0245, 2-[4-(3-fluoro-1H-pyrazolo[3,4-b]pyridin-5-yl)phenyl]-N-[6-methoxy-5-(trifluoromethyl)-3-pyridyl]acetamide], the half-inhibitory concentration (IC50) at FLT3-D835Y and at c-KIT was 0.0001 to 10 µM each time.

What is called IC50 is the concentration that gives 50% inhibition. The GI50 is the concentration at which growth is held to half of that of the control.
